The text below walks through data of ChEMBL document CHEMBL4270503, “Recent developments in small molecule therapies for renal cell carcinoma” (Eur J Med Chem, 2017).

The species named for assay [1] is Homo sapiens. As to the kind of experiment: Antitumor activity in patient with metastatic renal cell carcinoma assessed as progression free survival during phase 3 trial. The assay is classed as functional.
For assay [2], the species on record is Homo sapiens. As to the kind of experiment: Antitumor activity in patient with metastatic renal cell carcinoma assessed as progression free survival co-treated with IFNalpha during phase 3 trial. The assay is classed as functional.
The species entered for assay [3] is Homo sapiens. The assay can be described thus: Antitumor activity in renal cell carcinoma patient with 2 previous VEGFR TKI treatment assessed as progression free survival (reference value: 1.8 months). The assay is classed as functional.
The species entered for assay [4] is Homo sapiens. The assay can be described thus: Antitumor activity in patient with metastatic renal cell carcinoma assessed as progression free survival. The assay is classed as functional.
The species entered for assay [5] is Homo sapiens. As to the kind of experiment: Antitumor activity in renal cell carcinoma patient without previous VEGFR TKI treatment assessed as progression free survival (reference value: 1.9 months). The assay is classed as functional.
Assay [6] is filed under the species Homo sapiens. The assay can be described thus: Antitumor activity in patient with metastatic renal cell carcinoma assessed as overall survival. It is filed as functional.
For assay [7], the species on record is Homo sapiens. As to the kind of experiment: Antitumor activity in patient with renal cell carcinoma assessed as progression free survival (reference value: 2.8 months). It is filed as functional.
The species named for assay [8] is Homo sapiens. As to the kind of experiment: Antitumor activity in patient with renal cell carcinoma assessed as overall survival (reference value: 15.2 months). It is filed as functional.
For assay [9], the species on record is Homo sapiens. The assay can be described thus: Antitumor activity in renal cell carcinoma patient with previous sunitinib treatment assessed as progression free survival. It is filed as functional.
The species entered for assay [10] is Homo sapiens. The assay can be described thus: Antitumor activity in renal cell carcinoma patient with previous cytokine therapies assessed as progression free survival. The assay is classed as functional.
The species entered for assay [11] is Homo sapiens. The assay can be described thus: Antitumor activity in patient with renal cell carcinoma assessed as progression free survival during phase 3 non-inferiority trial. It is filed as functional.
In a further assay the test system is CAKI-2. As to the kind of experiment: Antitumor activity against human Caki2 cells xenografted in nuded mouse assessed as inhibition of tumor growth at 10 mg/kg, po. It is filed as functional. The conditions noted are these: CAKI-2, po, read-out: TGI. In general terms: A xenograft is tissue or cells of one species grown in another, often human tumour cells in immunodeficient mice.

For assay [12], the system named is HUVEC. The assay can be described thus: cells. The conditions noted are these: Homo sapiens.
In assay [13] the test system is HUVEC. The assay can be described thus: cells. The following applies: Homo sapiens. This is another data set of the same source.
The species entered for assay [14] is Homo sapiens. As to the kind of experiment: Antitumor activity in treatment-naive and cytokine-refractory patient with renal cell carcinoma assessed as progression free survival (reference value: 4.2 months). It is filed as functional.
Assay [15] is filed under the species Homo sapiens. As to the kind of experiment: Antitumor activity in patient with renal cell carcinoma assessed as overall survival during phase 3 non-inferiority trial. It is filed as functional.
The species entered for assay [16] is Homo sapiens. The assay can be described thus: Antitumor activity in patient with renal cell carcinoma assessed as progression free survival during phase 2 trial. It is filed as functional.
Assay [17] is filed under the species Homo sapiens. As to the kind of experiment: Antitumor activity in patient with metastatic renal cell carcinoma assessed as objective response during phase 3 trial. It is filed as functional.
The species entered for assay [18] is Homo sapiens. The assay can be described thus: Antitumor activity in patient with metastatic renal cell carcinoma assessed as overall survival during phase 3 trial. The assay is classed as functional.

Take `CO[C@H]1C[C@@H]2CC[C@@H](C)[C@@](O)(O2)C(=O)C(=O)N2CCCC[C@H]2C(=O)O[C@H]([C@H](C)C[C@@H]2CC[C@@H](OC(=O)C(C)(CO)CO)[C@H](OC)C2)CC(=O)[C@H](C)/C=C(\C)[C@@H](O)[C@@H](OC)C(=O)[C@H](C)C[C@H](C)/C=C/C=C/C=C/1C` [TEMSIROLIMUS]: the Survival in the assay listed under Homo sapiens [1] was determined as 10.9 months; in the assay listed under Homo sapiens [2], 8.4 months.

Turning to `CO[C@H]1C[C@@H]2CC[C@@H](C)[C@@](O)(O2)C(=O)C(=O)N2CCCC[C@H]2C(=O)O[C@H]([C@H](C)C[C@@H]2CC[C@@H](OCCO)[C@H](OC)C2)CC(=O)[C@H](C)/C=C(\C)[C@@H](O)[C@@H](OC)C(=O)[C@H](C)C[C@H](C)/C=C/C=C/C=C/1C` [EVEROLIMUS], the Survival in the assay filed under Homo sapiens [3] is given as 4 months; in the assay listed under Homo sapiens [4], 3.9 months; in the assay filed under Homo sapiens [5] it was 5.4 months; in the assay listed under Homo sapiens [6], 16.5 months.

For the compound `CNC(=O)c1cc(Oc2ccc(NC(=O)Nc3ccc(Cl)c(C(F)(F)F)c3)cc2)ccn1` [SORAFENIB], the Survival in the assay listed under Homo sapiens [7] turned out to be 5.5 months; in the assay filed under Homo sapiens [8] it was 17.8 months; in the assay filed under Homo sapiens [9], 3.4 months; in the assay filed under Homo sapiens [10], 6.5 months.

`Cc1ccc(Nc2nccc(N(C)c3ccc4c(C)n(C)nc4c3)n2)cc1S(N)(=O)=O` [PAZOPANIB]: the Survival in the assay filed under Homo sapiens [11] was 8.4 months; in the assay listed under Homo sapiens [14] it was 9.2 months; in the assay filed under Homo sapiens [15] it was 28.3 months. Further, in the assay on CAKI-2, the inhibition in vivo at 10 mg/kg came to 77%. Also, the values for the half-maximal inhibitory concentration (IC50) in the assay on HUVEC [12] and in the assay on HUVEC [13] were 21 nM and 720 nM, respectively.

Turning to `CCN(CC)CCNC(=O)c1c(C)[nH]c(/C=C2\C(=O)Nc3ccc(F)cc32)c1C` [SUNITINIB], the Survival in the assay listed under Homo sapiens [16] is listed as 7.8 months; in the assay filed under Homo sapiens [18] it was 26.4 months; in the assay listed under Homo sapiens [1], 11 months; in the assay filed under Homo sapiens [15] it was 29.1 months. In addition, in the assay listed under Homo sapiens [17], the Activity turned out to be 31%.

Consider `COc1cc2nccc(Oc3ccc(NC(=O)C4(C(=O)Nc5ccc(F)cc5)CC4)cc3)c2cc1OC` [CABOZANTINIB], for which, in the assay filed under Homo sapiens [4], the Survival is reported as 7.4 months.

In the case of `CNC(=O)c1ccccc1Sc1ccc2c(/C=C/c3ccccn3)n[nH]c2c1` [AXITINIB], the Survival in the assay filed under Homo sapiens [9] was 4.8 months; in the assay filed under Homo sapiens [10], 12.1 months.
